In US20150307846A1, “GROWTH FACTOR COCKTAIL TO ENHANCE OSTEOGENIC DIFFERENTIATION OF MESENCHYMAL CELLS” (University of Pennsylvania, priority 2012, published 2015):

Key:
Assay type in all cases: cell-based
[1] = tested on: human periosteum derived cells (hPDCs); assay: Alkaline phosphatase activity / ALP staining in hPDCs
Experimental: (§1) FIG. 8: A) Identification of factors that drive proliferation of hPDCs. A cell pool of hPDCs was either treated with growth medium (GM, negative control), medium containing eight factors (all factors) or medium containing eight minus one factor for 8 days. The factors are osteogenic medium (OM), calcium ions (Ca, 6 mM), phosphate ions (Pi, 4 mM), TNFα (50 ng/ml), IL6 (10 ng/ml), Wnt3A (50 ng/ml), EGF (20 ng/ml), and TGFβ1 (10 ng/ml). Proliferation is expressed as population doublings and was measured after 8 days after stimulation (n=3, error bars: standard deviation). The horizontal line is a reference line set on the proliferation in the “all factor” condition. B) Identification of factors that drive alkaline phosphatase activity in hPDCs. The percentage alkaline positive cells is used as a metric for early osteoblast differentiation.
FIG. 9: Gene expression of early (A) and late (B) bone markers in hPDCs treated with GM, OM or GM/OM supplemented with a growth factor mix (GF) containing TNFα, EGF, TGFβ1 and IL6. […]
(§2) Cell culture. […] For in vitro osteogenic differentiation assays, passage 6 to passage 9 hPDCs (pool of four different donors) were seeded at 3000 cells/cm^2 in either 96-well plates to assess proliferation and alkaline phosphatase activity or in the middle eight wells of a 24-well plate for quantifying gene expression. […]

[2] = tested on: human periosteum derived cells (hPDCs); assay: Gene expression of bone markers in hPDCs in 2D culture (Taqman PCR); conditions: for iBSP mRNA levels: at the used concentrations (Ca 6 mM, Pi 4 mM)
Experimental: Same experimental design as in A. C) Identification of factors involved in osteoblast maturation. hPDCs were treated with OM and TGFβ1 for 6 days, followed by stimulation with GM (negative control), GM containing six factors or GM supplement with six minus one factor for 4 days. The factors are ascorbic acid (Asc. Ac., 57 μM), TNFα (50 ng/ml), IL6 (10 ng/ml), EGF (20 ng/ml), Ca (6 mM) and Pi (4 mM). To evaluate osteoblast maturation, gene expression of RUNX2, OSX, DLX5, iBSP, OC and RANKL is measured with Taqman PCR. […] D) Gene expression of osteoblast markers in hPDCs treated with OM and TGFβ1 for one week followed by GM supplemented with a growth factor mix (GF) containing ascorbic acid (57 μM), EGF (20 ng/ml), IL6 (10 ng/ml), Ca (6 mM), and Pi (4 mM) (“GF+C6P4”) or the same mix with reduced Ca (3 mM) and Pi (2 mM) ions (“GF+C3P2”). Gene expression is expressed as fold increase as compared to the GM condition. (n=3, error bars: standard deviations, *p≦00.05, Mann-Whitney U test). E) Gene expression of osteoblast markers in hPDCs treated with OM/TGFβ1 for 10 days, or with GM supplemented with ascorbic acid, EGF, IL6, C3P2 for 10 days (“EGF/IL6/C3P2”), or sequential stimulation with OM/TGFβ1 for 6 days followed by GM supplemented with ascorbic acid, EGF, IL6, C3P2 (“EGF/IL6/C3P2”) for 4 days. Gene expression is expressed as fold increase as compared to hPDCs cultured in OM/TGFβ1 (n=3, error bars: standard deviations, *p≦00.05, Mann-Whitney U test).
Cell culture. Periosteum was harvested from four patients (male/female/age) and periosteal cells were enzymatically released from the matrix. Tissue culture plastic adherent cells were expanded in DMEM medium supplemented with 10% fetal bovine serum as described previously (6). For in vitro osteogenic differentiation assays, passage 6 to passage 9 hPDCs (pool of four different donors) were seeded at 3000 cells/cm^2 in either 96-well plates to assess proliferation and alkaline phosphatase activity or in the middle eight wells of a 24-well plate for quantifying gene expression.
Medium was changed every other day. Supplemental factors were TNFα, IL6 (R&D Systems, USA), TGFβ1 (Stem Cell Research, USA), Ascorbic Acid (Sigma,USA), Ca and Pi (SigmaUSA). Calcium and phosphate ion working solutions were prepared as described in (7).
Quantitative PCR. Complementary DNA (cDNA) was obtained by reverse transcription of […] of total RNA with Oligo (dT)20 as primer (Superscript Ill; Invitrogen, Merelbeke, Belgium). Sybr Green PCR was performed in 10 pl reaction in a Rotor-Gene-Q (Qiagen) with following protocol: 95° C. for 3 seconds, 60° C. for 20 seconds. Primer sequences for specific Sybr green PCR was performed with human specific primers (Table 5). Taqman PCR primer/probe combinations (Applied Biosystems) were used in the in vitro osteogenesis assays.
Statistical Analysis. Experiments were carried out in triplicate. The error bars represent the standard error of the mean when cells from multiple donors are used. Standard deviations are shown when experiments are performed with a hPDC cell pool (n=3). Statistical comparison between experimental conditions was performed with a Mann-Whitney U test. A p-value ≦0.05 was considered as being statistically significant.

[3] = tested on: human periosteum derived cells (hPDCs); assay: ALP/Alizarin Red staining of calcium deposits (mineralization) on hPDCs; conditions: hPDCs after OM and TGFβ1 one week, then 4 days
Excerpt: FIG. 9: Gene expression of early (A) and late (B) bone markers in hPDCs treated with GM, OM or GM/OM supplemented with a growth factor mix (GF) containing TNFα, EGF, TGFβ1 and IL6. C) ALP staining of hPDCs that were stimulated with OM and TGFβ1 for one week followed by GM with one factor in the absence or presence of ascorbic acid for 2 days. D) ALP/Alizarin Red staining to stain calcium deposits on hPDCs pre-treated with OM and TGFβ1 for one week followed by GM with six minus one factors for four days in the absence or presence of ascorbic acid.
To overcome the inhibitory effect of OM on later stages of osteoblastogenesis, we considered to explore a two stage protocol wherein hPDCs were treated with OM and TGFβ1 to stimulate proliferation and ALP activity. After six days, medium was changed to growth medium supplemented with six factors (ascorbic acid, TNFα, IL6, EGF, Ca, Pi) minus one factor for 4 days. At this stage, ascorbic acid was included as a factor, because it promoted ALP activity (FIG. 9C) and mineralization (FIG. 9D) in vitro. […] Gene expression levels of RUNX2 were decreased when ascorbic acid was omitted from the mix. […] Furthermore, EGF, calcium and phosphate were required for DLX5 transcription, but at the used concentrations, calcium and phosphate decreased iBSP mRNA levels (FIG. 8C).

[4] = tested on: human periosteum derived cells (hPDCs); assay: Proliferation of hPDCs in 2D culture (population doublings); conditions: 8 days, eight factors minus one
Experimental: as §1
as §2, with “culture. Periosteum was harvested from four patients (male/female/age) and periosteal cells were enzymatically released from the matrix.” for “culture.”

[5] = two stage protocol, six factors minus one, 4 days

Row | Compound | RANKL expression in medium devoid of the factor [2, 5] | iBSP mRNA levels [2] | role in DLX5 transcription [2, 5] | other results
1 | O=C1O[C@H]([C@@H](O)CO)C(O)=C1O [ascorbic acid, reference compound] | lower levels |  |  | ALP activity (staining) ([1]; hPDCs after OM and TGFβ1 one week, then GM with factor 2 days): promoted; RUNX2 gene expression when the factor was omitted from the mix [2, 5]: decreased; mineralization [3]: promoted
2 | [Ca] [calcium] |  | decreased | required | 
3 | IL6: cytokine ligand, 10 ng/ml | lower levels |  |  | 
4 | TGFβ1: growth factor ligand, 10 ng/ml |  |  |  | effect on proliferation (leave-one-out) [4]: strong inducers; effect on ALP activity (leave-one-out) ([1]; hPDCs, 8 days, eight factors minus one): strong inducers
5 | TNFα | lower levels |  |  | effect on osteogenic differentiation [2, 5]: strong inhibitor; expression levels of OSX, iBSP and OC when the factor was removed from the cocktail [2, 5]: enhanced
6 | phosphate |  | decreased | required | 
